# Laboratory results taken from patent publication US5116855A, “Rhodanine derivatives and pharmaceutical compositions” (Nisshin Flour Milling Co., Ltd., priority 1989, dated 1992).
# Molecular target: T1, aldose reductase (Rattus norvegicus, UniProt P07943)
# T1 construct: the lenses were excised and homogenized in cold distilled water; from tissue; host or cells: lens of male SD rats, homogenate supernatant (crude enzyme)
# Experiment: Inhibitory activity against aldose reductase (crude enzyme from rat lenses, NADPH oxidation at 340 nm, D,L-glyceraldehyde substrate)
# Assay type: biochemical
# Details: aldose reductase from SD rat lenses, pH 6.2, 30° C.; for inhibition at 10 µM: pH 6.2, 10^-5 M; for inhibition at 10 µM / inhibition at 1 µM: read-out: Percentage of inhibition (%); for inhibition at 1 µM: pH 6.2, 10^-6 M
# Experimental: The compounds of the present invention were evaluated for the inhibitory activity against aldose reductase according to the following assay procedure.
# Enzyme activity was assayed according to the modification [Biochemical Pharmacology, 25, 2505 (1976)] of the method described in J. Biol. Chem., 240, 877-882 (1965).
# SD strain male rats were sacrificed by decapitation, the lenses were excised and homogenized in cold distilled water. The homogenate was then centrifuged and the supernatant was used as the crude aldose reductase solution.
# Separately, a 0.1 M sodium phosphate buffer (pH 6.2) containing 0.4 M ammonium sulfate was prepared at 30° C. In this buffer were dissolved the present compound, the crude aldose reductase solution and nicotinamide-adenine dinucleotide phosphate, reduced form (NADPH). The mixture was preincubated at 30° C. for 3 minutes and the reaction was initiated by addition of D,L-glyceraldehyde. In this case, the concentration of the present compound dissolved was 10^-5 M and 10^-6 M, respectively. The total amount of the assay mixture was 1.0 ml, containing 0.16 mM of NADPH, 10 mM of D,L-glyceraldehyde and 0.010-0.016 units of aldose reductase.
# The inhibitory activity of the present compounds against aldose reductase was measured using each 1.0 ml of the reaction mixture containing the present compound in the above concentration. In this measurement, the rate of NADPH oxidation was followed by recording the decrease in absorbance at 340 nm. The inhibitory activity of the present compounds against aldose reductase as measured was expressed in percentage of inhibition (%) as a relative activity based on a control value.
inhibition at 10 µM [%],inhibition at 1 µM [%],Percentage of inhibition (%) (10^-5 M),Percentage of inhibition (%) (10^-6 M),Structure (SMILES)
92.5,84.7,,,"COc1cc(C=CC(C)=C2SC(=S)NC2=O)ccc1OCC(=O)O [Example 32, 4-[3-(4-Oxo-2-thioxo-5-thiazolidinylidene)-1-butenyl]-2-methoxyphenoxyacetic acid]"
78.4,46.4,,,"COc1cc(CCC(C)=C2SC(=S)NC2=O)ccc1OCC(=O)O [Example 69, 2-Methoxy-4-[3-(4-oxo-2-thioxo-5-thiazolinylidene)butyl]-phenoxyacetic acid]"
55.2,34.3,,,"COC(=O)COc1ccc(OC)cc1C=CC(C)=C1SC(=S)NC1=O [Example 65, Methyl 4-methoxy-2-[3-(4-oxo-2-thioxo-5-thiazolinylidene)-1-butenyl]phenoxyacetate]"
,,89.8,,"CC(C=Cc1ccc(OCC(=O)O)cc1)=C1SC(=S)NC1=O (single isomer, unassigned) [21 Isomer B]"
62.6,50.9,,,"CCOC(=O)COc1ccccc1C=CC(C)=C1SC(=S)NC1=O [Example 39, Ethyl 2-[3-(4-oxo-2-thioxo-5-thiazolinylidene)-1-butenyl]phenoxacetate]"

# The next lines start with the compound.
Structure (SMILES),inhibition at 10 µM [%],inhibition at 1 µM [%],Percentage of inhibition (%) (10^-5 M),Percentage of inhibition (%) (10^-6 M)
"CCOC(=O)COc1ccc(C=C(C)C=C2SC(=S)NC2=O)cc1OC [Example 53, Ethyl 2-methoxy-4-[2-methyl-3-(4-oxo-2-thioxo-5-thiazolinylidene)-1-propenyl]phenoxyacetate]",71.3,32,,
"CCCCCCC(CCc1ccc(CCC(=O)O)cc1)=C1SC(=S)NC1=O (single isomer, unassigned) [33 Isomer A]",42.9,,,
"CCOC(=O)COc1ccc(C=CC(C)=C2SC(=S)N(C)C2=O)cc1OC (single isomer, unassigned) [55 Isomer B]",,,47.5,24.3
"COC(=O)COc1ccccc1C=C(C)C=C1SC(=S)NC1=O [Example 63, Methyl 2-[2-methyl-3-(4-oxo-2-thioxo-5-thiazolinylidene)-1-propenyl]phenoxyacetate]",,,80.5,32.2
"Cc1ccsc1C=CC(CCC(=O)O)=C1SC(=S)NC1=O [Example 31, 6-(3-Methyl-2-thienyl)-4-(4-oxo-2-thioxo-5-thiazolidinylidene)-5-hexenoic acid]",83.6,39.8,,
"COC(=O)c1ccccc1NC(=O)CCCC(C)=C1SC(=S)NC1=O [Example 19, Methyl N-[5-(4-oxo-2-thioxo-5-thiazolidinylidene)hexanoyl]anthranilate]",34.6,,,
